From US20260000794A1, “IN VIVO TRANSITION METAL DETECTION” (The University of Sydney, priority 2022, published 2026)
Entries after “also recorded” stand apart in the source; their conditions may differ.

What was measured:
SH-SY5Y cells = assay: Confocal microscopy of F—NpCul fluorescence in cells with copper loading or depletion (FIG. 4); assay type: cell-based, human
Description: SH-SY5Y cells were used, which are a human neuron-like cell line. SH-SY5Y cells were maintained at 37° C. in 5% CO2. Cells were cultured in Dulbecco's Modified Eagle's Medium (DMEM, Thermo Fisher Scientific) supplemented with 10% foetal calf serum (FCS, Thermo Fisher Scientific) and 2.5 mM L-glutamine (Sigma-Aldrich). Fluorobrite DMEM (FDMEM, Thermo Fisher Scientific) was supplemented with 10% FCS and 2.5 mM L-glutamine, unless otherwise stated.
For all imaging experiments, 1.5×10^5 cells were seeded into 35 mm glass bottom dishes (MatTek) and allowed to adhere overnight. 10 mM stock solutions of F—NpCul CuATSM were freshly prepared in DMSO. A 10 mM stock solution of BCS was freshly prepared in MilliQ water. For experiments cells were dosed with nothing (vehicle), 1 μL of 10 mM CuATSM stock in 1 mL DMEM or 10 μL of 10 mM BCS solution in 1 mL DMEM. […]
Images were obtained at 37° C. in a 5% CO2 atmosphere on an Olympus Fluo View FV3000 Confocal Laser Scanning Microscope, equipped with an Olympus 60× water objective (UPLSAPO60XW) and 405 and 640 nm lasers, unless otherwise stated. All samples were excited at 405 nm, and fluorescence emission collected from 510-610 nm. […] Data is presented as the mean fluorescence intensities of 40-50 cell clusters chosen as regions of interest from 10 images representative of each condition.

SWISS mice = assay: DIVE microscopy of fluorescent emission in CuATSM-treated vs untreated mice after F—NpCul injection (FIG. 5, FIG. 6); assay type: in vivo, mouse; conditions: 4 mg/kg F—NpCul i.v. tail vein, CuATSM 15 mg/kg orally daily for eight days
Description: (§1) In this work, anaesthetised SWISS mice underwent a craniotomy surgery to expose a region of parietal cortex. Imaging was performed through this cranial window with a water dipping objective lens. 4 mg/kg F—NpCul was i.v. injected through the tail vein after three minutes. F—NpCul was excited at 920 nm and emission was 504-577nm. “Treated” mice (n=3) were orally administered the copper-delivery compound CuATSM (15 mg/kg) daily for eight days to increase brain copper levels prior to imaging while control mice (n=3, “Untreated”) received no treatment. For each mouse at all time points, fluorescent emission per unit area (arbitrary units) from five representative regions of interest (ROIs) within vasculature and five ROIs in surrounding tissue was quantified from a projected image combining 130 μm depth. Baseline fluorescence from an image acquired prior to probe injection was subtracted from all fluorescent measurements which were then averaged at each time point. Comparison of average fluorescent emission intensity between control and CuATSM-treated mice was undertaken for a) brain tissue and b) vasculature. Unpaired t-tests with significance p<0.05 were performed to describe the temporal pattern of change. Error bars show mean ±SEM.
(§2) Anaesthetised SWISS mice underwent a craniotomy surgery to create a cranial window exposing parietal cortex. […]

mice = assay: Observation of signs of toxicity in the in vivo studies; design: species or system mouse; conditions: in vivo imaging studies, 4 mg/kg F—NpCul
Description: as §1, §2

CCSCCN(CCSCC)Cc1cn(C(=O)OCCOCCNc2ccc3c4c(cccc24)C(=O)N(CCF)C3=O)cn1 [F—NpCul]
mean fluorescence intensity response to copper status (SH-SY5Y cells; 10 μM F—NpCul, cells treated with vehicle, 10 μM CuATSM (copper-loading) or 100 μM BCS (copper-depleting) for 1 h, P<0.001 v vehicle): sensitive to both an accumulation and a deficiency of copper | bioavailability and cell uptake, reporting intracellular Cu(I) levels (SH-SY5Y cells; preliminary results): bioavailable and can be taken up by cells to report intracellular Cu(I) levels | reported copper levels within the vasculature, treated vs untreated mice (SWISS mice): equivalent | fluorescent signal in brain tissue, CuATSM-treated vs untreated mice (SWISS mice; parietal cortex, excitation 920 nm, emission 504-577 nm): significantly higher; also recorded: Higher fluorescent signal is observed in CuATSM-treated mice compared to control | signs of toxicity following F—NpCul exposure (mice): no signs of toxicity
